One assay deals with COVID-19. The following applies: cited from earlier work.
In another assay the target is SARS-CoV-2 M^pro (Severe acute respiratory syndrome coronavirus 2, UniProt P0DTD1). The assay can be described thus: FRET-based kinetic assay of M^pro inhibition. Type of assay: biochemical.

With `Cc1cccc(C)c1OCC(=O)N[C@@H](Cc1ccccc1)[C@@H](O)C[C@H](Cc1ccccc1)NC(=O)[C@H](C(C)C)N1CCCNC1=O` [lopinavir], the “benefits against COVID-19 in clinical trials” value in the assay on COVID-19 (clinical trials, no reference given) is “neither lopinavir nor the lopinavir/ritonavir combination has thus far shown any significant benefits”.

The compound `Cc1c(O)cccc1C(=O)N[C@@H](CSc1ccccc1)[C@H](O)CN1C[C@H]2CCCC[C@H]2C[C@H]1C(=O)NC(C)(C)C` [nelfinavir] gave a 50% inhibitory concentration (IC50) on SARS-CoV-2 M^pro of 250 to 600 µM.

In the case of `CCC(CC)COC(=O)[C@H](C)N[P@](=O)(OC[C@H]1O[C@@](C#N)(c2ccc3c(N)ncnn23)[C@H](O)[C@@H]1O)Oc1ccccc1` [remdesivir], the clinical benefit result in the assay with COVID-19 (adult patients hospitalized for severe COVID-19) is “no statistically significant clinical benefits”. The “time to clinical improvement” value with COVID-19 (in comparison to the placebo-control group) is “faster time to clinical improvement”.

The values are drawn from PMC7605328 (ACS Medicinal Chemistry Letters, 2020).
